Patent publication US6407248B1, “α-unsaturated amines, their production and use” (Takeda Chemical Industries, Ltd., priority 1987, dated 2002)

test system: Brown Planthoppers (Nilaparvata lugens); assay: Effect against brown planthoppers (foliar spray on rice seedlings); type: in vivo; conditions: Nilaparvata lugens, foliar, 168 h, read-out: % Mortality after 7 days
Procedure: Effect Against Brown Planthoppers (Nilaparvata lugens)
An emulsifiable concentrate of the compound of the invention, prepared in the same manner as Example 112 below, was diluted with water to a concentration of 500 ppm and sprayed over the stems and leaves of rice seedlings in the 2-leaf stage at the rate of 10 ml per paper pot. Water was put in test tubes and the treated rice seedlings were placed therein. Then, 10 brown planthopper larvae were released in each tube, which was then capped with an aluminum cap. The test tubes were maintained in an incubator at 25° C. and the dead insects were counted 7 days after release. The % mortality was calculated using the following formula. [formula]

SMILES | mortality at 500 µg/mL [%]
CNC(=C[N+](=O)[O-])NCc1ccc(Cl)nc1Cl [Compound 47, 1-(2,6-Dichloro-3-pyridylmethyl)amino-1-methylamino-2-nitroethylene] | 100
CN(Cc1ccc(Br)nc1)C(N)=C[N+](=O)[O-] [Compound 129, 1-Amino-1-[N-(6-bromo-3-pyridylmethyl)-N-methyl]amino-2-nitroethylene] | 100
CN(C)NC(=C[N+](=O)[O-])NCc1ccc(Cl)nc1 [Compound 52, 1-(6-Chloro-3-pyridylmethyl)amino-1-(2,2-dimethyl-1-hydrazino)-2-nitroethylene] | 100

same assay, conditions: Nilaparvata lugens, foliar, 168 h; emulsifiable concentrate diluted with water to 500 ppm, sprayed on rice seedlings (2-leaf stage), 10 ml per paper pot; 10 larvae per tube; 25° C.; dead insects counted 7 days after release; read-out: % Mortality after 7 days

SMILES | mortality at 500 µg/mL [%]
CNC(=C[N+](=O)[O-])N(C)c1cccnc1 [Compound 79, 1-Methylamino-1-[N-methyl-N-(3-pyridyl)]amino-2-nitroethylene] | 100
CCCCN(C(=C[N+](=O)[O-])NC)c1ccc(Cl)nc1 [Compound 92, 1-[N-n-Butyl-N-(6-chloro-3-pyridyl)]amino-1-methyl-amino-2-nitroethylene] | 100

test system: not given; assay: not given; conditions: not given

SMILES | melting point
CCCCCNC(=C[N+](=O)[O-])NCc1cccnc1 | 97 to 98 °C
O=[N+]([O-])C=C(NCc1cccnc1)NCC(F)(F)F | 164 to 165 °C
COC(CNC(=C[N+](=O)[O-])NCc1cccnc1)OC | 96 to 98 °C
O=[N+]([O-])C=C(NCCO)NCc1cccnc1 | 161 to 163 °C
CCCCNC(=C[N+](=O)[O-])NCc1cccnc1 | 110 to 112 °C
CSC(=C[N+](=O)[O-])NCc1cccnc1 | 129 to 130 °C
CC(C)NC(=C[N+](=O)[O-])NCc1cccnc1 | 148 to 150 °C
NC(=C[N+](=O)[O-])NCc1cccnc1 | 177 to 178 °C (dec.)
O=[N+]([O-])C=C(NCc1cccnc1)N1CCOCC1 | 102 to 103 °C
O=[N+]([O-])C=C(NCc1cccnc1)NCc1cccnc1 | 141 to 143 °C
O=[N+]([O-])C=C(NCc1cccnc1)Nc1ccccc1 | 217 to 218 °C
CCCSCCNC(=C[N+](=O)[O-])NCc1cccnc1 | 93 to 94 °C
